In patent publication US20070043018A1, “2"-Hydroxynicotianamine, process for producing the same and angiotensin converting enzyme inhibitor, hypotensive drug and health food” (JAPAN SCIENCE AND TECHNOLOGY AGENCY, priority 2003, published 2007):

Columns and labels:
[1] = target: T1, ACE from the lung of rabbit (Oryctolagus cuniculus, UniProt P12822); assay: Measurement of ACE inhibitory activity by Cushman and Cheung method; type: biochemical; settings: substrate hippuryl-L-histidyl-L-leucine, pH 8.3, 37° C. for 30 minutes, no pre-incubation; determined by extrapolation on the graph; read-out: concentration that indicates 50% inhibition (IC50) of ACE
T1 construct: ACE used was a freeze dry product of ACE from the lung of rabbit (manufactured by Sigma); purchased Sigma; host or cells: rabbit lung tissue
T1 sequence (P12822 34-1310): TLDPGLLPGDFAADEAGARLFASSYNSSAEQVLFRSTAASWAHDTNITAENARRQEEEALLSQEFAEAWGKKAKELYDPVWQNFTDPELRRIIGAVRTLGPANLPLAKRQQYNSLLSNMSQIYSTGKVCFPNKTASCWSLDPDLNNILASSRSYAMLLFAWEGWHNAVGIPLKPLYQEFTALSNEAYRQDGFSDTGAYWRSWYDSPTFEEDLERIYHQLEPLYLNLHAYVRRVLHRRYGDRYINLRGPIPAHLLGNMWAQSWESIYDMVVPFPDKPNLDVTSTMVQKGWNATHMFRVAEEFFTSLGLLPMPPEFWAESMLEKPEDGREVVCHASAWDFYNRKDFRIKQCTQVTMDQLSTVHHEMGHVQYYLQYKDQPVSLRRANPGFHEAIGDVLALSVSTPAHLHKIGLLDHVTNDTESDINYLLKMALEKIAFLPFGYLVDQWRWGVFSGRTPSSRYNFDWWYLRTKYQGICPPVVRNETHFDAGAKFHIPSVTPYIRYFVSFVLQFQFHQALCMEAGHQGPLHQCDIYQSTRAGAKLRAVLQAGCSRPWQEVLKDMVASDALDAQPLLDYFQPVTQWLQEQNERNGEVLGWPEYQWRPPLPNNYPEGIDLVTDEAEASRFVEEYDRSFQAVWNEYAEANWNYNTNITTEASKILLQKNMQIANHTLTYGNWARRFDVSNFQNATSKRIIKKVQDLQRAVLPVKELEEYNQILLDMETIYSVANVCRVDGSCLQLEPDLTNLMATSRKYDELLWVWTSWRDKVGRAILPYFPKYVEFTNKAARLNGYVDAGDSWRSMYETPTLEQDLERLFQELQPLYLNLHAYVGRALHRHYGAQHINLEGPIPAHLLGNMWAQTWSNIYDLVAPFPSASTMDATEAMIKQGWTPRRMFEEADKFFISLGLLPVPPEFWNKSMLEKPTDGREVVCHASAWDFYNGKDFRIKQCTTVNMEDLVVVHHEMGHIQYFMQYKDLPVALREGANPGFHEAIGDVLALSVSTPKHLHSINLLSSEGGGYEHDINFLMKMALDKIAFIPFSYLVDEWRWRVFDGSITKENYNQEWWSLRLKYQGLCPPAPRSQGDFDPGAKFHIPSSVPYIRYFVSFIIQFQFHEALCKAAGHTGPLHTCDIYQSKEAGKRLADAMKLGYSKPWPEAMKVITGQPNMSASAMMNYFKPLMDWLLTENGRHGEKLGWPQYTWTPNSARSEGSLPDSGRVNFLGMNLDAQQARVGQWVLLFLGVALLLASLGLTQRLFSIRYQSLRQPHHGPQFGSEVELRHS
From the text: The separation and purification process comprises the steps of: injecting the extract solution obtained in the extraction process into a column filled with the cation exchange resin or anion exchange resin by a known method; washing the column with water and eluting the column with the aqueous electrolyte solution as the eluant; and measuring the ACE inhibitory activity of the fractions obtained to collect the fractions having the ACE inhibitory activity. Known methods such as the method of Cushman and Cheung may be used for measuring the ACE inhibitory activity.
<Measurement of ACE Inhibitory Activity>
The ACE inhibitory activity was measured as follows by Cushman and Cheung method. […]
After mixing the compositions of the reaction solution (i), (ii), (iii), and (iv), enzyme solution (v) was added to the mixed solution without pre-incubation, and the solution was allowed to react (incubate) at 37° C. for 30 minutes. […] The extract solution was evaporated to dryness using a centrifugal evaporator, and the residue was dissolved in 1 ml of water to measure the concentration of the extract by absorbance at 228 nm using a spectrophotometer. The measured absorbance was defined as ODs (ODs1, ODs2 and ODs3) for the measurements using samples solutions 1, 2 and 3, respectively. […]

[2] = Solubility (other chemical and physical properties); type: physicochemical; settings: in water, dilute acid and dilute alkali
Method: While the novel substance of the invention is positive to the ninhydrin reaction, the reaction is suppressed by Cu^2+ ions. […] Almost no usual amino acids are detected when amino acids are detected with an automatic amino acid analyzer after decomposing the novel substance of the invention with 6N HCl at 110° C. for 16 hours, and the decomposition product has a complicated composition. The novel substance of the invention has a melting point of 275 to 280° C. and a specific rotation [α]D^23.6 of −40° (c=0.4 g/100 ml; solvent=water) and [α]D^23.6 of −34.5° (c=0.2 g/100 ml/; solvent=1N HCl).

| IC50 [1] [nM] | Structure (SMILES) | solubility [2] |
| --- | --- | --- |
| 80 | N[C@H](C(=O)O)C(O)CN[C@@H](CCN1CC[C@H]1C(=O)O)C(=O)O (stereo partly drawn) [2″-hydroxynicotianamine] | soluble in water, dilute acid and dilute alkali |
| 85 | N[C@@H](CCN[C@@H](CCN1CC[C@H]1C(=O)O)C(=O)O)C(=O)O [nicotianamine, Nicotianamine] |  |
